# Laboratory results taken from US20210113501A1, “METHOD OF ADMINISTERING BETA-HYDROXY-BETA-METHYLBUTYRATE (HMB)” (Metabolic Technologies, Inc., priority 2009, published 2021).
# “And” between values parts separate entries of the source, which are not always exact repeats. Equal values may be shown once.
# Tests used:
# [1] = Study 1: plasma HMB after a single dose, sampled to 180 min; format: in vivo, human
# Text: Human subjects. In study 1, four male and four female college-aged subjects were studied. In study 2, an additional four male and four female college-aged subjects were studied. The protocols for both studies were approved by the Iowa State University IRB and each subject gave informed consent to participate in the study. Due to the nature of the treatments, neither the subjects nor the researchers could be blinded.
# Treatments. The same treatments were given to the subjects in both study groups. The three treatments were given in random order to each subject with at least a one week washout period between treatments. The treatments were supplied by Metabolic Technologies, Inc. (MTI, Ames, Iowa) and were prepared with food grade ingredients. One gram of CaHMB or the equivalent HMB in free acid in a gel form was administered to the subjects. The CaHMB capsules were obtained from a commercial supplement manufacturer (Optimum Nutrition, Aurora, Ill.) while the HMB-acid gel was prepared at MTI laboratories. Briefly, the HMB-acid was adjusted to a pH 4.5 with potassium carbonate (K2CO3) and flavors and sweeteners were then added. The 1.0 g CaHMB capsule was taken with 355 mL of water (approx. 12 oz.). The free acid gel dosage was 0.80 g and was equivalent to the free acid contained in the CaHMB in the capsule. The free acid gel treatments were either swallowed (FASW) or held sublingual for 15 seconds and then swallowed (FASL). FASW consisted of expelling the entire dose into the mouth in a 3 ml syringe, swallowing, and then following this with 355 mL of water. FASL subjects were instructed to place the entire dosage under the tongue and hold the dosage for 15 sec before swallowing. They then rinsed and followed the dose with 355 mL of water.
# (§1) Study 1 design. For study 1 the subjects reported to the laboratory in the morning following an overnight fast. Before ingestion of one of the supplemental treatments, a flexible sterile polyethylene catheter was inserted into a forearm vein using sterile procedures and a pre-ingestion blood sample was drawn. Subsequent blood samples were taken at 0, 2, 5, 10, 15, 25, 35, 45, 60, 90, 120 and 180 min after ingestion of the treatment. Plasma was separated and samples were stored frozen at −70° C. for analysis of HMB concentration. In addition, a portion of the pre-ingestion and 180 minute blood samples were used for measurements (LabCorp, Kansas City, Mo.) of glucose, uric acid, blood urea nitrogen (BUN), creatinine, sodium, potassium, chloride, carbon dioxide, phosphorous, protein, albumin, globulin, albumin:globulin ratio, total bilirubin, direct bilirubin, alkaline phosphatase, lactate dehydrogenase, aspartate aminotransferase (AST), alanine aminotransferase (ALT), gamma-glutamyl transpeptidase (GGT), iron binding capacity (TIBC), unsaturated iron binding capacity (UIBC), iron, iron saturation, total cholesterol, triglycerides, high density lipoprotein (HDL), low density lipoprotein (LDL), and cholesterol ratio. A complete blood count (CBC) was also performed before and after the 180 min treatment period. Subjects also completed a brief questionnaire to report any physical symptoms (such as nausea, headache, etc) they may have experienced during the experiment.
# HMB analysis. Plasma and urine HMB were analyzed by gas chromatography/mass spectrometry (GC/MS) as previously described.(27)
# Calculations and statistics. Areas under the curves were calculated for each subject using the trapezoidal method that sums the area above baseline.(51) Half-life of plasma HMB was calculated for study 2. The following equations were used: […]
# The data were analyzed using a crossover design with Proc GLM in SAS. (45) For the timed sampling of plasma HMB a repeated measures polynomial model was used. The model included subject, order, and treatment main effects and time by treatment interaction where appropriate. […]
# [2] = Study 1 hematology (complete blood count); format: in vivo, human
# Description: as §1
# The data were analyzed using a crossover design with Proc GLM in SAS. (45) For the timed sampling of plasma HMB a repeated measures polynomial model was used. The model included subject, order, and treatment main effects and time by treatment interaction where appropriate. For other parameters Proc GLM was also used with subject, order, and treatment main effects and the p values are reported for the treatment main effect. Statistical significance was determined for p<0.05 and a trend was determined for 0.05<p<0.10.
# [3] = cited from earlier work
structure (smiles),measurement,setting,value
"CC(C)(O)CC(=O)[O-].CC(C)(O)CC(=O)[O-].[Ca+2] [CaHMB, calcium β-hydroxy-β-methylbutryate, reference compound]",time of peak plasma HMB,[1],122 ± 15.6 min
same,tpeak (time to reach peak plasma concentration),[1],121.9 ± 15.6 min
same,AUC plasma HMB,[1]; 180 min,"13,997 ± 1,534 nmol/180 min"
same,Cpeak (peak plasma HMB concentration),[1]; single dose 1 g CaHMB or 0.80 g free acid,131 ± 10 nmol/mL and 131.2 ± 10.1 nmol/mL
same,Basophils (absolute),[2]; After (180 min),0.04 ± 0.0 ×10^3/μL
same,"Basophils, %",[2]; After (180 min),0.4 ± 0.2%
same,Eosinophils (absolute),[2]; After (180 min),0.1 ± 0.04 ×10^3/μL
same,"Eosinophils, %",[2]; After (180 min),2.1 ± 0.6%
same,Hematocrit,[2]; After (180 min),38.7 ± 1.3%
same,Hemoglobin,[2]; After (180 min),13.4 ± 0.5 g/dL
same,Lymphocytes (absolute),[2]; After (180 min),2.1 ± 0.2 ×10^3/μL
same,"Lymphocytes, %",[2]; After (180 min),34.0 ± 3.4%
same,MCH,[2]; After (180 min),31.3 ± 0.6 pg
same,MCHC,[2]; After (180 min),34.7 ± 0.2 g/dL
same,MCV,[2]; After (180 min),90.4 ± 1.5 fL
same,Monocytes (absolute),[2]; After (180 min),0.5 ± 0.1 ×10^3/μL
same,"Monocytes, %",[2]; After (180 min),7.4 ± 0.7%
same,Neutrophils (absolute),[2]; After (180 min),3.8 ± 0.7 ×10^3/μL
same,"Neutrophils, %",[2]; After (180 min),56.1 ± 3.8%
same,Platelets,[2]; After (180 min),202.9 ± 16^ ×10^3/μL
same,RBC,[2]; After (180 min),4.3 ± 0.2 ×10^6/µL
same,RDW,[2]; After (180 min),13.1 ± 0.2%
same,WBC,[2]; After (180 min),6.4 ± 0.7 ×10^3/μL
same,Basophils (absolute),[2]; Before,0.05 ± 0.0 ×10^3/μL
same,"Basophils, %",[2]; Before,0.5 ± 0.2%
same,Eosinophils (absolute),[2]; Before,0.2 ± 0.04 ×10^3/μL
same,"Eosinophils, %",[2]; Before,2.5 ± 0.4%
same,Hematocrit,[2]; Before,38.3 ± 1.1%
same,Hemoglobin,[2]; Before,13.3 ± 0.4 g/dL
same,Lymphocytes (absolute),[2]; Before,2.5 ± 0.1 ×10^3/μL
same,"Lymphocytes, %",[2]; Before,39.6 ± 2.8%
same,MCH,[2]; Before,31.2 ± 0.6 pg
same,MCHC,[2]; Before,34.7 ± 0.1 g/dL
same,MCV,[2]; Before,90.0 ± 1.5 fL
same,Monocytes (absolute),[2]; Before,0.5 ± 0.1 ×10^3/μL
same,"Monocytes, %",[2]; Before,7.1 ± 0.9%
same,Neutrophils (absolute),[2]; Before,3.3 ± 0.4 ×10^3/μL
same,"Neutrophils, %",[2]; Before,50.3 ± 3.3%
same,Platelets,[2]; Before,209.0 ± 14^ ×10^3/μL
same,RBC,[2]; Before,4.3 ± 0.2 ×10^6/µL
same,RDW,[2]; Before,13.1 ± 0.2%
same,WBC,[2]; Before,6.4 ± 0.4 ×10^3/μL
same,Basophils (absolute) % Change,[2]; Before to After,−25.0%
same,"Basophils, % - % Change",[2]; Before to After,−25.0%
same,Eosinophils (absolute) % Change,[2]; Before to After,−21.4%
same,"Eosinophils, % - % Change",[2]; Before to After,−15.0%
same,Hematocrit % Change,[2]; Before to After,1.2%
same,Hemoglobin % Change,[2]; Before to After,1.2%
same,Lymphocytes (absolute) % Change,[2]; Before to After,−15.6%
same,"Lymphocytes, % - % Change",[2]; Before to After,−14.2%
same,MCH % Change,[2]; Before to After,0.3%
same,MCHC % Change,[2]; Before to After,0.1%
same,MCV % Change,[2]; Before to After,0.4%
same,Monocytes (absolute) % Change,[2]; Before to After,8.3%
same,"Monocytes, % - % Change",[2]; Before to After,3.5%
same,Neutrophils (absolute) % Change,[2]; Before to After,14.5%
same,"Neutrophils, % - % Change",[2]; Before to After,11.7%
same,Platelets % Change,[2]; Before to After,−2.9%
same,RBC % Change,[2]; Before to After,1.0%
same,RDW % Change,[2]; Before to After,0.1%
same,WBC % Change,[2]; Before to After,0.3%
same,time of peak plasma HMB levels after ingestion,[3]; depending upon the dosage,60 to 120 min
same,"plasma peak levels, 3 grams versus 1 gram dose","[3]; oral, Vukovich et al",3 times
same,time to peak plasma levels,[3]; typical 1 gram dosage,2 h
